Data published in ChEMBL document CHEMBL1135854, “Absorption studies on aminoglycoside binding to the packaging region of human immunodeficiency virus type-1” (Bioorg Med Chem Lett, 2002).

Tested on: Human immunodeficiency virus 1
Assay: Binding to 176-mer RNA from the packaging region of HIV-1 (LAI) and value of binding constant K is determined
Format: functional

Compound	K
NCC1OC(OC2C(CSCCNc3c4ccccc4nc4ccccc34)OC(OC3C(O)C(N)CC(N)C3OC3OC(CN)C(O)C(O)C3N)C2O)C(N)C(O)C1O (stereo not given)	16000 M⁻¹
NCC1O[C@H](O[C@H]2[C@@H](O)[C@H](O[C@H]3[C@H](O)[C@@H](N)C[C@@H](N)[C@@H]3O[C@H]3O[C@H](CN)[C@@H](O)[C@H](O)[C@H]3N)O[C@@H]2CSCCOCCSSCCOCCSC[C@H]2O[C@@H](O[C@H]3[C@H](O)[C@@H](N)C[C@@H](N)[C@@H]3O[C@H]3O[C@H](CN)[C@@H](O)[C@H](O)[C@H]3N)[C@H](O)[C@@H]2O[C@@H]2OC(CN)[C@H](O)[C@@H](O)[C@@H]2N)[C@H](N)[C@@H](O)[C@@H]1O (stereo not given in full)	3800 M⁻¹
NC[C@@H]1O[C@H](O[C@H]2[C@@H](O)[C@H](O[C@@H]3[C@@H](O)[C@H](N)C[C@H](N)[C@H]3O[C@H]3O[C@H](CO)[C@@H](O)[C@H](O)[C@H]3N)O[C@@H]2CO)[C@H](N)[C@@H](O)[C@@H]1O	43000 M⁻¹
N=C(N)NCC1OC(OC2C(CO)OC(OC3C(O)C(NC(=N)N)CC(NC(=N)N)C3OC3OC(CNC(=N)N)C(O)C(O)C3NC(=N)N)C2O)C(NC(=N)N)C(O)C1O (stereo not given)	100000 M⁻¹
NC[C@@H]1O[C@H](O[C@H]2[C@@H](O)[C@H](O[C@@H]3[C@@H](O)[C@H](N)C[C@H](N)[C@H]3O[C@H]3O[C@H](CN)[C@@H](O)[C@H](O)[C@H]3N)O[C@@H]2CO)[C@H](N)[C@@H](O)[C@@H]1O	120000 M⁻¹
